Where two headings read alike, the source gives them in different places.
How the values were obtained:
[1] = target: T1, MAO-A (Mus musculus, UniProt Q64133); experiment: Cerebral MAO-A activity, mitochondria-enriched mouse brain fraction (kynuramine, fluorimetric); type: biochemical; conditions: for Concentrations with significant inhibition of MAO-A activity: tested 25–200 μM, Dunnett vs control
T1 construct: Mitochondria-enriched brain preparations were obtained in accordance with established methodology outlined in literature; from tissue; host or cells: mouse brain, mitochondria-enriched fraction
T1 sequence (Q64133 1-526): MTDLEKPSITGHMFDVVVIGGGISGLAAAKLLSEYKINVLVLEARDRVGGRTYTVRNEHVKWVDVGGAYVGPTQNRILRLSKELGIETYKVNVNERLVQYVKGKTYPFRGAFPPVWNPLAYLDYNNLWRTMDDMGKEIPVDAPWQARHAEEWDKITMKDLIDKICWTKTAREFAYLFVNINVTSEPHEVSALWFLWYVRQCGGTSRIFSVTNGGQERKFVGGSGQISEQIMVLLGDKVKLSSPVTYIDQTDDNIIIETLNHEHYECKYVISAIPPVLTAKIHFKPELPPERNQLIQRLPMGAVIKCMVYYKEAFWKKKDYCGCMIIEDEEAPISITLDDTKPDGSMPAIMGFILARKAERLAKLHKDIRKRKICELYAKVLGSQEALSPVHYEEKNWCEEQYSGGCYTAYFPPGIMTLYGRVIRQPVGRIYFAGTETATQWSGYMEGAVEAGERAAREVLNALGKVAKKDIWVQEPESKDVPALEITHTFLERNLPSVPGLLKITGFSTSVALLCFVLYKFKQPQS
Protocol: Mitochondria-enriched brain preparations were obtained in accordance with established methodology outlined in literature. The homogenate was prepared using the mouse brain tissue and a homogenization buffer (Na2PO4/KH2PO4/sucrose) at a ratio of 1:4 (w/v). The homogenate was centrifuged at 900g at 4 °C for 5 min. The resulting supernatant was separated and subjected to centrifugation at 12,500g for 15 min. The resulting pellet was resuspended in the homogenization buffer and subjected to a further round of centrifugation under identical conditions. Finally, the mitochondrial pellet obtained was reconstituted in an assay buffer solution (Na2PO4/KH2PO4/KCl). Protein concentration was estimated using the Bradford method and standardized as 1 mg/mL for the experiments.
MAO activity was assessed following the method outlined by Krajl, with some modifications by Matsumoto. Briefly, a 100 μL aliquot of the mitochondria-rich fraction was incubated at 37 °C for 5 min with specific MAO inhibitors: clorgyline (250 nM, a MAO-A inhibitor), or pargyline (250 nM, a MAO-B inhibitor). Then, 10 μL of each compound was introduced at varying concentrations (25–200 μM). Water (10 μL) was used in the control tubes. Afterward, the substrate, 20 μL of kynuramine dihydrobromide, was added to achieve a final concentration of 90 μM for MAO-A and 60 μM for MAO-B. The samples were incubated at 37 °C for 30 min. The reaction was halted by the addition of 300 μL of 10% trichloroacetic acid (TCA). After centrifuging at 16,000g for 15 min, an aliquot of 800 μL of the supernatant was mixed with 1 mL of 1 M sodium hydroxide (NaOH). The samples were measured using a fluorimeter with excitation at 315 nm and emission at 380 nm.

[2] = system: cerebral lipid peroxidation; experiment: TBARS assay, SNP-induced lipid peroxidation in brain homogenate; type: biochemical, mouse; conditions: mouse brain homogenate, SNP-induced
Protocol: Brains from mice of both sexes were used for in vitro assays, each performed in duplicate across three independent experiments (n = 3), conducted on different days.
The brain tissues were homogenized in a 50 mM Tris-HCl buffer at pH 7.4, using a 1:10 ratio (w/v). The freshly prepared homogenate was then centrifuged at 900g for 10 min, yielding a low-speed supernatant (S1). Lipid peroxidation was evaluated using the TBARS method as previously described. Lipid peroxidation was induced by 0.3 mM SNP. A 100 μL aliquot of S1 was incubated for 1 h at 37 °C in the presence of the compounds 3A, 3B, and 3C at concentrations ranging from 25 to 500 μM, and SNP or water (to control). The color reaction was initiated by adding 500 μL of a 0.8% thiobarbituric acid (TBA) solution, followed by 200 μL of 8.1% sodium dodecyl sulfate (SDS) and 500 μL of acetic acid (pH 3.4). The reaction mixture was incubated at 95 °C for 1 h. The absorbance was measured using a spectrophotometer at a wavelength of 532 nm. Trolox (100 μM), an antioxidant analogous to vitamin E, served as a positive control. The results were reported as nmol TBARS per gram of tissue. A parallel TBARS experiment was also conducted using a standard alkyl aryl selenide (2-((phenylselanyl)-methyl)-pyridine), dissolved in DMSO at the same concentrations tested, ranging from 25 to 500 μM.

[3] = system: male Swiss mice; experiment: Tail suspension test (TST); type: in vivo, mouse
Protocol: A behavioral screening was conducted using the three salts to determine their potential antidepressant-like actions (n = 7–9 mice/group).
A dosage of 5 mg/kg (intragastric route, i.g., by gavage) was administered to all groups receiving the salts. […] The TST was conducted 30 min following drug administration, with the OFT being performed 4 min prior to the TST.
Following the selection of the most promising salt during screening (Compound 3B), an analysis of the compound’s time-response curve was conducted in the mouse TST. For this purpose, the animals were divided into five groups: (I) control (water; i.g.), (II) the group receiving compound 3B 15 min prior to TST, (III) the group receiving compound 3B 30 min before TST, (IV) the group receiving compound 3B 60 min before TST, and (V) the group receiving compound 3B 120 min before TST. The dosage of salt was standardized at 5 mg/kg (i.g). OFT was conducted 4 min prior to the TST.
After choosing a suitable preadministration time, the dose–response curve of the compound at this fixed time was analyzed. The animals were categorized into […]: I) a control group (administered water; i.g.) and groups II, III, IV and V) receiving compound 3B at doses of 0.5 mg/kg, 1 mg/kg, 2.5 mg/kg, and 5 mg/kg (i.g.), respectively. […] Thirty minutes postadministration, the animals underwent the TST. Four minutes prior to the TST, they underwent the OFT.
This test aims to assess depressive-like behavior and antidepressant-like action of therapies by measuring immobility. […] The test was conducted using a mouse suspension box made of wood, measuring 50 cm × 21 cm × 21 cm, designed to prevent any visual or physical interaction among the animals. A suspension bar was positioned atop the box, and the mouse’s tail was affixed to the bar using adhesive tape. The test duration was 6 min, during which the animal’s latency to the first immobility episode and the total duration of immobility (sec) were assessed.

[4] = salts 5 mg/kg i.g., fluoxetine 20 mg/kg i.p., 30 min before test

Row | SMILES | IC50 [1] [µM] | Concentrations with significant inhibition of MAO-A activity [1] | IC50 [2] [µM] | IC50 ([1]; mouse brain mitochondria-rich fraction, 25–200 μM, kynuramine 90 μM, read-out: IC50 for MAO-A) [µM] | Minimum effective dose for antidepressant-like action ([3]; TST, i.g., 30 min) [mg/kg] | TST latency time to first immobility episode, screening [3, 4] | TST total immobility time, screening [3, 4] | Cohen-D effect size in TST ([3]; screening, 5 mg/kg i.g., 30 min)
1 | O=C(C[n+]1ccccc1C[Se]c1ccccc1)c1ccccc1.[Br-] [Compound 3A, 1-(2-oxo-2-phenylethyl)-2-((phenylselanyl)methyl)pyridin-1-ium bromide] | 238 | ≥ 50 µM | 150 | – | – | – | – | –
2 | Cc1ccc(C(=O)C[n+]2ccccc2C[Se]c2ccccc2)cc1 [Compound 3B, 1-(2-oxo-2-(p-tolyl)ethyl)-2-((phenylselanyl)methyl)pyridin-1-ium bromide] | – | all concentrations tested | 130 | 73.9 | 1 | significantly increased latency time | shorter total immobility times | > 1.77

From publication PMC12498411, “Antidepressant-like Properties of a Selenium-Containing Pyridinium Salt Explored through In Vitro, In Vivo, and In Silico Approaches” (ACS Chemical Neuroscience, 2025)
